Laboratory results as given in PMC7782499, “Progerinin, an optimized progerin-lamin A binding inhibitor, ameliorates premature senescence phenotypes of Hutchinson-Gilford progeria syndrome” (Communications Biology, 2021).
Where two headings read alike, the source gives them in different places.

Test: In vivo pharmacokinetic (PK) analysis, intravenous and oral
Set-up: species or system rats
Settings: for bioavailability: read-out: Bioavailability (BA)
Procedure: A. In vivo pharmacokinetic (PK) analysis of JH010 (performed in rats). […] B Effect of SLC-D011 on human ERG (hERG). […] C In vivo pharmacokinetic analysis of SLD-D011. […] HEK293 cells transiently transfected with GFP-PG vectors were treated with SLC-D011 for 24 hr (n = 3 independent experiment; two-tailed Student’s t test). […] “Con” means dimethyl sulfoxide (DMSO)-treated control.
At pre-set time-points, blood concentration of JH4 was determined by LC-MS/MS analysis[22],[23]. Other chemicals were also tested using similar protocol. In vitro ADME studies (plasma protein binding, CYP inhibition, microsomal stability, plasma stability, and hERG inhibition) were performed by New Drug Development Center (Daegu, Korea) using standard protocols[24],[25].

Compound	bioavailability (rat, blood, oral, 10 mg/kg) [%]	Cmax (rat, blood, oral 5mg/kg (n=3)) [ng/mL]	Tmax (rat, blood, oral 5mg/kg (n=3)) [h]	AUC (rat, blood, oral 5mg/kg (n=3), read-out: AUCall, Mean) [ng·h/mL]	bioavailability (rat, blood, oral 5 mg/kg) [%]	AUCINF_obs, Mean (intravenous 5mg/kg (n=3)) [ng·h/mL]	AUCall, Mean (intravenous 5mg/kg (n=3)) [ng·h/mL]	MRTINF_obs, Mean (intravenous 5mg/kg (n=3)) [h]	T1/2, Mean (intravenous 5mg/kg (n=3)) [min]	Vss_obs, Mean (intravenous 5mg/kg (n=3)) [L/kg]	Plasma concentration, Mean (intravenous 5mg/kg (n=3), 0.08 hr) [ng/mL]	Plasma concentration, Mean (intravenous 5mg/kg (n=3), 0.25 hr) [ng/mL]	Plasma concentration, Mean (intravenous 5mg/kg (n=3), 0.5 hr) [ng/mL]	Half-life after in vivo oral administration (oral 10 mg/kg)
CC1(C)Oc2cc3oc(=O)ccc3cc2C[C@@H]1OC/C=C/c1ccccc1 [SLC-D011]	58.1	29.7	2.7	144	65.9	–	–	–	–	–	–	–	–	–
CC1(C)Oc2cc3oc(=O)ccc3cc2CC1OC(=O)C=Cc1cccnc1 (centres unmarked) [JH4]	–	–	–	–	–	1.4	1.3	0.2	6	673.9	4.7	1.5	0.6	extremely short
